Test results reported in US20100298402A1, “STILBENE DERIVATIVES AS PSTAT3/IL-6 INHIBITORS” (ORCHID RESEARCH LABORATORIES LIMITED, priority 2007, published 2010).

Key:
[1] = test system: HCT 116 (colon), NCIH460 (lung) and U251 (glioma) cell lines; test: Anti-cancer screen (MTT growth inhibition, 48 hours); type: cell-based; conditions: Homo sapiens; HCT 116, NCIH460 and U251 cell lines; MTT after 48 hours of incubation;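 note: mean GI50 across the three cell lines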
Description: The experimental drugs were screened for anti-cancer activity in three cell lines using five concentrations for each compound. The cell lines—HCT 116 (colon), NCIH460 (lung) and U251 (glioma) were maintained in DMEM containing 10% fetal bovine serum. 96-well microtiter plates are inoculated with cells in 100 μL of cell suspension (5×10^4 cells/mL) for 24 hours at 37° C., 5% CO2, 95% air and 100% relative humidity. A separate plate with these cell lines is also inoculated to determine cell viability before the addition of the compounds (T0)
Following 24-hour incubation, test compounds were added to the 96 well plates. Each plate contains one of the above cell lines and the following samples in triplicate: five different dilutions (0.01, 0.1, 1, 10 and 100 μM) of four test compounds, appropriate dilutions of a cytotoxic standard and growth medium (untreated) wells. Test compounds were dissolved in DMSO to prepare 20 mM stock solutions on the day of drug addition and serial dilutions were carried out in complete growth medium at 2× strength, such that 100 μL added to the wells gave final concentrations (0.01, 0.1, 1, 10 and 100 μM) in the well. SAHA was used as the standard drug in these experiments.
For T0 measurement, 24 hours after seeding the cells, 20 μL of 3-(4,5-dimethyl-2-thiazolyl)-2,5-diphenyl-2H-tetrazolium (MTT) solution per well was added to the ‘T0’ plate and incubated for 3 hours at 37° C. in a CO2 incubator. The plate containing cells and test compounds was treated similarly after 48 hours of incubation. After 3 hours of MTT addition, well contents were aspirated carefully followed by addition of 150 μL DMSO per well. Plates were agitated to ensure dissolution of the formazan crystals in DMSO and absorbance was read at 570 nm (A570).
Percent growth (PG) is calculated relative to the control and zero measurement wells (T0) as follows:
PG values are plotted against drug concentration to derive the following: GI50 is the concentration required to decrease PG by 50% vs control; TGI is the concentration required to decrease PG by 100% vs control and LC50 is the concentration required to decrease PG by 50% vs T0. (Mosmann T. Rapid colorimetric assay for cellular growth and survival: application to proliferation and cytotoxicity assays. (J. Immunol. Methods. 1983, 65 (1-2), 55-63; Anne Monks et al); feasibility of high-flux anticancer drug screen using a diverse panel of cultured human tumor cell lines”. (JNCI, Vol. 83, No. 11, 1991). Results for growth inhibition of synthesized compounds are given in Table-1.

[2] = test system: IL-6 in supernatant of NCIH 460 cells; test: Measuring IL-6 in culture supernatants (ELISA); type: cell-based; conditions: Homo sapiens, NCI-H460, 5 hours incubation

| SMILES | GI50 [1] | inhibition at 10 µM [2] |
| --- | --- | --- |
| COC(=O)/C(=C/c1ccc(OCC(O)CNCCOc2ccccc2OC)cc1)c1ccc(OC)cc1 (centres unmarked) [Example 29, 3-{4-[3-(2-Methoxyphenoxyethylamino)-2-hydroxypropoxy]phenyl}-2-(4-(methoxy)phenyl)acrylic acid methyl ester] | 1900 nM | 64.2% |
| COC(=O)/C(=C/c1ccc(OCC(O)CNCc2ccccc2)cc1)c1ccc(OC)cc1 (centres unmarked) [Example 30, 3-{4-[3-(Benzylamino)-2-hydroxypropoxy]phenyl}-2-(4-(methoxy)phenyl)acrylic acid methyl ester] | 1400 nM | 27.8% |
| COC(=O)/C(=C/c1ccc(OCC(O)CNCc2ccccc2)cc1)c1cccs1 (centres unmarked) [Example 31, 3-{4-[3-(Benzylamino)-2-hydroxypropoxy]phenyl}-2-(thiophen-2-yl)acrylic acid methyl ester] | 900 nM | 2.1% |
| COC(=O)/C(=C/c1ccc(OC)cc1OC)c1ccc(OCC(O)CNCc2ccc(OC)cc2OC)cc1 (centres unmarked) [Example 32, 2-{4-[3-(2,4-Dimethoxybenzylamino)-2-hydroxypropoxy]phenyl}-3-(2,4-dimethoxyphenyl)acrylic acid methyl ester] | 600 nM | 70.5% |
| COC(=O)/C(=C/c1ccc(OC)cc1OC)c1ccc(OCC(O)CNCCOc2ccccc2OC)cc1 (centres unmarked) [Example 33, 2-{4-[3-(2-Methoxyphenoxyethylamino)-2-hydroxypropoxy]phenyl}-3-(2,4-dimethoxyphenyl)acrylic acid methyl ester] | 2600 nM | 61.2% |
| COC(=O)/C(=C/c1ccc(OCC(O)CNCCOc2ccccc2OC)cc1)c1cccs1 (centres unmarked) [Example 34, 3-{4-[3-(2-Methoxyphenoxyethylamino)-2-hydroxypropoxy]phenyl}-2-(thiophen-2-yl)acrylic acid methyl ester] | 18700 nM | 41.9% |
| COC(=O)/C(=C/c1ccc(OCC(O)CNCc2ccccc2)cc1)c1ccc(F)cc1 (centres unmarked) [Example 36, 3-{4-[3-(Benzylamino)-2-hydroxypropoxy]phenyl}-2-(4-fluorophenyl)acrylic acid methyl ester] | 12000 nM | 27.9% |
| COC(=O)/C(=C/c1ccc(OCC(O)CNCc2ccccc2)cc1)c1ccc(C)cc1 (centres unmarked) [Example 39, 3-{4-[3-(Benzylamino)-2-hydroxypropoxy]phenyl}-2-(4-methylphenyl)acrylic acid methyl ester] | 6300 nM | 41.8% |
| COC(=O)/C(=C/c1ccc(OCC(O)CNCCOc2ccccc2OC)cc1)c1ccc(F)cc1 (centres unmarked) [Example 41, 3-{4-[3-(2-Methoxyphenoxyethylamino)-2-hydroxypropoxy]phenyl}-2-(4-fluorophenyl)acrylic acid methyl ester] | 11400 nM | 68% |
| COC(=O)/C(=C/c1ccc(OCC(O)CNCCOc2ccccc2OC)cc1)c1ccccc1 (centres unmarked) [Example 42, 3-{4-[3-(2-Methoxyphenoxyethylamino)-2-hydroxypropoxy]phenyl}-2-phenylacrylic acid methyl ester] | 12000 nM | 13% |
| COC(=O)/C(=C/c1ccc(OCC(O)CNCc2ccccc2)cc1)c1ccccc1 (centres unmarked) [Example 44, 3-{4-[3-(Benzylamino)-2-hydroxypropoxy]phenyl}-2-phenylacrylic acid methyl ester] | 2100 nM | 7.7% |
| COC(=O)/C(=C/c1ccccc1OCC(O)CNCc1ccc(OC)cc1OC)c1ccc(OC)cc1 (centres unmarked) [Example 45, 3-{2-[3-(2,4-Dimethoxybenzylamino)-2-hydroxypropoxy]phenyl}-2-(4-methoxyphenyl)acrylic acid methyl ester] | 1200 nM | 56% |
| COC(=O)/C(=C/c1ccccc1OCC(O)CNCCOc1ccccc1OC)c1ccc(OC)cc1 (centres unmarked) [Example 46, 3-{2-[3-(2-Methoxyphenoxyethylamino)-2-hydroxypropoxy]phenyl}-2-(4-methoxyphenyl)acrylic acid methyl ester] | 1600 nM | 48% |
